Laboratory results from PMC6218957, “VS-4718 Antagonizes Multidrug Resistance in ABCB1- and ABCG2-Overexpressing Cancer Cells by Inhibiting the Efflux Function of ABC Transporters” (Frontiers in Pharmacology, 2018).

Columns and labels:
[1] = molecular target: T1, ABCG2 (Homo sapiens, UniProt Q9UNQ0); assay: biochemical; set-up: cell membranes that overexpressed ABCG2
T1 sequence (Q9UNQ0 1-655): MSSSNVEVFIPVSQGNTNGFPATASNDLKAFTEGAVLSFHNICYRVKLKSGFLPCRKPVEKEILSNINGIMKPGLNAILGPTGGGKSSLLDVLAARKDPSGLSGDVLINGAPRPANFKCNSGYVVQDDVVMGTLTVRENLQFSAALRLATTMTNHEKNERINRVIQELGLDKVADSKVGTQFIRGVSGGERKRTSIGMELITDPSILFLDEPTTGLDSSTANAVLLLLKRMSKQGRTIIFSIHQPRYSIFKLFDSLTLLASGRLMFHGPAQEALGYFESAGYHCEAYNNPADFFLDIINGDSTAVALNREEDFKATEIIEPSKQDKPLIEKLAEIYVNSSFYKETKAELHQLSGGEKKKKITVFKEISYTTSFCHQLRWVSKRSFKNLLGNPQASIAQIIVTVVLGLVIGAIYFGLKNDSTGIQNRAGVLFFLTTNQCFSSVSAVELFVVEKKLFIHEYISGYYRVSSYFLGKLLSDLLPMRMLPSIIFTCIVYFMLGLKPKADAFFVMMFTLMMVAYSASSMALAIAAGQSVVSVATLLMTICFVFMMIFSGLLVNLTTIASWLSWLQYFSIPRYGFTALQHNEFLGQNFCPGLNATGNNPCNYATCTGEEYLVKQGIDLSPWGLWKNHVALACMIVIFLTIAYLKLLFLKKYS

[2] = molecular target: T2, ABCB1 (Homo sapiens, UniProt P08183); assay: ATPase stimulation in ABCB1-overexpressing membranes; also [3H]-paclitaxel accumulation/efflux inhibition in KB-C2 cells; type: biochemical; set-up: cell membranes that overexpressed ABCB1
[3] = molecular target: T1, ABCG2
[4] = molecular target: T2, ABCB1

T2 sequence (P08183 whole entry): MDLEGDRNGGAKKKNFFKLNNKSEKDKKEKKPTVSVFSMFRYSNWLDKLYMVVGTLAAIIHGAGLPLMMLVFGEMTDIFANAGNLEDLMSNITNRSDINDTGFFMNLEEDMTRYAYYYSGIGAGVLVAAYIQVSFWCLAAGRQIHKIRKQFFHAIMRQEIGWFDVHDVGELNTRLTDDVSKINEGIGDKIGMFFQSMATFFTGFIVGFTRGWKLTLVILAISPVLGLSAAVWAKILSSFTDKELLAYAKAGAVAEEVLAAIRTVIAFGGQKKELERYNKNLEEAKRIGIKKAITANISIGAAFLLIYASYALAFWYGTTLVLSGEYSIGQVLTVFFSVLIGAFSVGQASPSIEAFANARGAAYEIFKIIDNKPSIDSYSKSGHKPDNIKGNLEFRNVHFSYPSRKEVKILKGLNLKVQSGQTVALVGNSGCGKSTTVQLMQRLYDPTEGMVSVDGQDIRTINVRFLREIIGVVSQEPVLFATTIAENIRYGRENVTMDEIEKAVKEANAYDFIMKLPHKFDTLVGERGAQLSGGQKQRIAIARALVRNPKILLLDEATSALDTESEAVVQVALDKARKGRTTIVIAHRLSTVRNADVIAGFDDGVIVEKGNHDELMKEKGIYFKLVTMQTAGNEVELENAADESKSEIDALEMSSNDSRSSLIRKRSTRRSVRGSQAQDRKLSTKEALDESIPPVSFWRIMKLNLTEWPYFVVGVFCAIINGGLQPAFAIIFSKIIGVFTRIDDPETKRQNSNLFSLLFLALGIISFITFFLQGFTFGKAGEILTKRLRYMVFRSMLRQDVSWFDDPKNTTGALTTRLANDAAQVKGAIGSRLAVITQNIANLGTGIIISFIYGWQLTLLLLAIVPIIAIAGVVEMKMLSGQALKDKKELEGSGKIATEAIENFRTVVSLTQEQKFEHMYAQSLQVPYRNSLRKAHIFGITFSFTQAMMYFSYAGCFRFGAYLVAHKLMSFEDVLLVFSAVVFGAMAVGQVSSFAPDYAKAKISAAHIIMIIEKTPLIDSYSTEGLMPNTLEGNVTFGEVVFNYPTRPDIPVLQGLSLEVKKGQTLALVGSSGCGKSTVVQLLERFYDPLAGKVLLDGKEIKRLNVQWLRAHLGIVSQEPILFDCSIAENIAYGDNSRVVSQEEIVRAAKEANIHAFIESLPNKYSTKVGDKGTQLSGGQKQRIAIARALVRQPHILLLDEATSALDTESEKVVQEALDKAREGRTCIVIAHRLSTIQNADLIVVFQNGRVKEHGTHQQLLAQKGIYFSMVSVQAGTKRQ

CNC(=O)c1ccccc1Nc1cc(Nc2ccc(N3CCOCC3)cc2OC)ncc1C(F)(F)F [VS-4718]
EC50 [1]: 9.6 µM | EC50 [2]: 1.72 µM

O=C1c2c(O)ccc(O)c2C(=O)c2c(NCCNCCO)ccc(NCCNCCO)c21 [Mitoxantrone]
radiolabelled efflux/accumulation in ABCG2-overexpressing NCI-H460/MX20 vs paren [3]: [^3H]-mitoxantrone efflux in ABCG2-overexpressing NCI-H460/MX20 cells

CC(=O)O[C@H]1C(=O)[C@@]2(C)[C@H]([C@H](OC(=O)c3ccccc3)[C@]3(O)C[C@H](OC(=O)[C@H](O)[C@@H](NC(=O)c4ccccc4)c4ccccc4)C(C)=C1C3(C)C)[C@]1(OC(C)=O)CO[C@@H]1C[C@@H]2O [Paclitaxel]
radiolabelled efflux/accumulation in ABCB1-overexpressing KB-C2 vs parental KB-3 [4]: VS-4718 significantly reduced the efflux of [^3H]-paclitaxel in ABCB1-overexpressing KB-C2 cells
